From article PMC4476799, “Englerin A Agonizes the TRPC4/C5 Cation Channels to Inhibit Tumor Cell Line Proliferation” (PLoS ONE, 2015)
Where two headings read alike, the source gives them in different places.

System: cancer cell lines from the cancer cell line encyclopedia (CCLE)
Assay: Cell line profiling (CLiP) proliferation experiment
Format: cell-based
Conditions: Homo sapiens; for EC50: read-out: Inflection Point; for IC50: read-out: Crossing Point
Procedure: Compound profiling experiment and data analysis was performed as previously described. Data was imported and plotted using the Tibco Spotfire DXP application. Lines were categorized as sensitive, intermediate and refractory as follows: Amax<-40 & Inflection Point <2 ~ Sensitive, Amax>-20 & Inflection Point >10 ~ Refractory, all else were called Intermediate. Cancer Cell line HG-U133 Plus 2 data was processed and normalized as described. […] Five sets of refractory cell lines were generated from the pool of refractory cell lines trying to match the lineage composition of the set of sensitive cell lines. The limma package was used as previously described to perform the statistical comparison.

[1] = MKN-74, cell line MKN74 (stomach)
[2] = MM1.S, cell line MM1-S (haematopoietic_and_lymphoid_tissue)
[3] = MOLM-13, cell line MOLM-13 (haematopoietic_and_lymphoid_tissue)
[4] = MOLP-8, cell line MOLP-8 (haematopoietic_and_lymphoid_tissue)
[5] = MOLT-16, cell line MOLT-16 (haematopoietic_and_lymphoid_tissue)
[6] = MONO-MAC-6, cell line MONO-MAC-6 (haematopoietic_and_lymphoid_tissue)
[7] = MV4-11, cell line MV-4-11 (haematopoietic_and_lymphoid_tissue)
[8] = NCI-H82, NCI-H82, lung, small_cell_carcinoma
[9] = NCI-H441, NCI-H441, lung, adenocarcinoma
[10] = NCI-H647, NCI-H647, lung, mixed_adenosquamous_carcinoma
[11] = NCI-H650, NCI-H650, lung, bronchioloalveolar_adenocarcinoma
[12] = NCI-H716, NCI-H716, large_intestine, adenocarcinoma
[13] = NCI-H810, NCI-H810, lung, large_cell_carcinoma
[14] = NCI-H1092, cell line NCI-H1092 (lung)
[15] = NCI-H1299, cell line NCI-H1299 (lung)
[16] = NCI-H1563, cell line NCI-H1563 (lung)
[17] = NCI-H1581, cell line NCI-H1581 (lung)

With CC(C)[C@@]12C[C@@H](O)[C@@](C)(O1)[C@@H]1CC[C@@H](C)[C@H]1[C@@H]2OC(=O)/C=C/c1ccccc1 [Englerin B] the EC50 (MIA PaCa-2, cell line MIA PaCa-2 (pancreas)) was 11.3 µM, the IC50 (MKN-1, cell line MKN1 (stomach)) was greater than 30 µM and the IC50 (MKN-1, cell line MKN1) was greater than 30 µM. The IC50 (MKN-7, MKN7 (stomach)) was greater than 30 µM, the IC50 (MKN-7, cell line MKN7 (stomach)) was greater than 30 µM and the IC50 (MKN-45, MKN-45 (stomach)) was greater than 30 µM. It also gave an IC50 (MKN-45, cell line MKN-45 (stomach)) greater than 30 µM, an IC50 [1] of 27.5 µM and an EC50 [1] of 27.5 µM. For the same compound, the IC50 [2] was greater than 30 µM, the EC50 [2] was 25.6 µM and the IC50 (MM1.S, cell line MM1-S) was greater than 30 µM. For the same compound, the EC50 (MOLM-13, MOLM-13 (haematopoietic_and_lymphoid_tissue)) was 13.1 µM, the IC50 [3] was 13.4 µM and the EC50 [3] was 13.1 µM. It also gave an IC50 [4] of 16.6 µM, an EC50 [4] of 12.1 µM and an IC50 (MOLP-8, cell line MOLP-8) of 16.6 µM. It also gave an IC50 [5] of 23.3 µM, an EC50 [5] of 23.3 µM and an IC50 [6] of 18.4 µM. It also gave an EC50 [6] of 18.4 µM, an IC50 (MSTO-211H, cell line MSTO-211H (pleura)) of 27.7 µM and an IC50 (MV4-11, MV-4-11 cells) of 11.4 µM. The EC50 (MV4-11, MV-4-11 cells) was 11.4 µM, the IC50 [7] was 11.4 µM and the EC50 [7] was 11.4 µM. The IC50 (Malme-3M, Malme-3M (skin)) was greater than 30 µM, the IC50 (Malme-3M, Malme-3M cells) was greater than 30 µM and the IC50 (Maver1, MAVER-1 (haematopoietic_and_lymphoid_tissue)) was 13.2 µM. For the same compound, the IC50 (MeWo, cell line MeWo (skin)) was 26.2 µM, the EC50 (MeWo, cell line MeWo (skin)) was 22.6 µM and the IC50 (NALM-6, cell line NALM-6 (haematopoietic_and_lymphoid_tissue)) was 11.8 µM. The IC50 (NCI-H28, NCI-H28, pleura, NS) was 11.9 µM, the EC50 (NCI-H28, NCI-H28, pleura, NS) was 10.5 µM and the IC50 [8] was 19.6 µM. It also gave an EC50 [8] of 19.6 µM, an IC50 (NCI-H82, NCI-H82 cells) of 19.6 µM and an EC50 (NCI-H82, NCI-H82 cells) of 19.6 µM. It also gave an IC50 (NCI-H146, NCI-H146 cells) greater than 30 µM, an IC50 (NCI-H146, cell line NCI-H146 (lung)) greater than 30 µM and an IC50 (NCI-H226, NCI-H226, lung, squamous_cell_carcinoma) greater than 30 µM. It also gave an IC50 (NCI-H226, cell line NCI-H226) greater than 30 µM, an IC50 (NCI-H358, NCI-H358, lung, bronchioloalveolar_adenocarcinoma) of 22.8 µM and an IC50 [9] greater than 30 µM. It also gave an EC50 [9] of 12.7 µM, an IC50 (NCI-H441, cell line NCI-H441) greater than 30 µM and an IC50 (NCI-H460, NCI-H460, lung, large_cell_carcinoma) greater than 30 µM. It also gave an IC50 (NCI-H460, cell line NCI-H460) greater than 30 µM, an IC50 (NCI-H520, NCI-H520, lung, squamous_cell_carcinoma) greater than 30 µM and an IC50 (NCI-H520, NCI-H520 cells) greater than 30 µM. For the same compound, the IC50 (NCI-H596, NCI-H596, lung, mixed_adenosquamous_carcinoma) was greater than 30 µM, the IC50 (NCI-H596, NCI-H596 cells) was greater than 30 µM and the IC50 [10] was 15 µM. The EC50 [10] was 15 µM, the IC50 [11] was 15.8 µM and the EC50 [11] was 15.8 µM. It also gave an IC50 (NCI-H650, NCI-H650 cells) of 15.8 µM, an EC50 (NCI-H650, NCI-H650 cells) of 15.8 µM and an IC50 (NCI-H661, NCI-H661, lung, large_cell_carcinoma) greater than 30 µM. For the same compound, the IC50 (NCI-H661, NCI-H661 cells) was greater than 30 µM, the IC50 [12] was 29.8 µM and the EC50 [12] was 21.4 µM. It also gave an EC50 (NCI-H716, NCI-H716 cells) of 21.4 µM, an IC50 (NCI-H727, NCI-H727, lung, NS) greater than 30 µM and an IC50 (NCI-H727, cell line NCI-H727) greater than 30 µM. The IC50 [13] was 26.6 µM, the EC50 [13] was 21.1 µM and the IC50 (NCI-H838, NCI-H838, lung, adenocarcinoma) was greater than 30 µM. For the same compound, the IC50 (NCI-H838, NCI-H838 cells) was greater than 30 µM, the IC50 (NCI-H1048, cell line NCI-H1048 (lung)) was 4.81 µM and the IC50 [14] was greater than 30 µM. For the same compound, the EC50 [14] was 3.48 µM, the IC50 (NCI-H1092, cell line NCI-H1092) was greater than 30 µM and the IC50 [15] was 13 µM. The EC50 [15] was 11.3 µM, the IC50 (NCI-H1355, cell line NCI-H1355 (lung)) was 10.7 µM and the IC50 (NCI-H1437, NCI-H1437 cells) was greater than 30 µM. The IC50 (NCI-H1437, cell line NCI-H1437 (lung)) was greater than 30 µM, the IC50 [16] was greater than 30 µM and the EC50 [16] was 9.9 µM. For the same compound, the IC50 (NCI-H1563, cell line NCI-H1563) was greater than 30 µM, the IC50 (NCI-H1573, cell line NCI-H1573 (lung)) was 1.5 µM and the EC50 (NCI-H1581, NCI-H1581 cells) was 15.4 µM. For the same compound, the IC50 [17] was 14.7 µM, the EC50 [17] was 15.4 µM and the IC50 (NCI-H1623, cell line NCI-H1623 (lung)) was greater than 30 µM. For the same compound, the IC50 (NCI-H1623, cell line NCI-H1623) was greater than 30 µM, the IC50 (NCI-H1650, NCI-H1650 (lung)) was 26.2 µM and the IC50 (NCI-H1650, cell line NCI-H1650 (lung)) was 26.2 µM. It also gave an IC50 (NCI-H1651, NCI-H1651 cells) greater than 30 µM and an IC50 (NCI-H1651, cell line NCI-H1651 (lung)) greater than 30 µM.
